Test results reported in ChEMBL document CHEMBL5126566, “Comparison of three zinc binding groups for HDAC inhibitors - A potency, selectivity and enzymatic kinetics study” (Bioorg Med Chem Lett, 2022).
The source made the active and inactive calls. The calls are words filed in the database; no cut-off is given here.

Assays:
[1] = target: T1, Histone deacetylase 3 (Homo sapiens, UniProt O15379); assay: Inhibition of HDAC3 (unknown origin) preincubated for 60 mins
[2] = target: T2, Histone deacetylase 2 (Homo sapiens, UniProt Q92769); assay: Inhibition of HDAC2 (unknown origin) preincubated for 120 mins
[3] = target: T1, Histone deacetylase 3; assay: Inhibition of HDAC3 (unknown origin) preincubated for 120 mins
[4] = target: T3, Histone deacetylase 1 (Homo sapiens, UniProt Q13547); assay: Inhibition of HDAC1 (unknown origin) preincubated for 30 mins
[5] = target: T1, Histone deacetylase 3; assay: Inhibition of HDAC3 (unknown origin) at 1 uM preincubated for 1 hr followed by 100-fold dilution and subsequent substrate addition measured after 1 hr; settings: time 2.0 hrs
[6] = target: T4, Histone deacetylase 7 (Homo sapiens, UniProt Q8WUI4); assay: Inhibition of HDAC7 (unknown origin)
T4 sequence (Q8WUI4 whole entry): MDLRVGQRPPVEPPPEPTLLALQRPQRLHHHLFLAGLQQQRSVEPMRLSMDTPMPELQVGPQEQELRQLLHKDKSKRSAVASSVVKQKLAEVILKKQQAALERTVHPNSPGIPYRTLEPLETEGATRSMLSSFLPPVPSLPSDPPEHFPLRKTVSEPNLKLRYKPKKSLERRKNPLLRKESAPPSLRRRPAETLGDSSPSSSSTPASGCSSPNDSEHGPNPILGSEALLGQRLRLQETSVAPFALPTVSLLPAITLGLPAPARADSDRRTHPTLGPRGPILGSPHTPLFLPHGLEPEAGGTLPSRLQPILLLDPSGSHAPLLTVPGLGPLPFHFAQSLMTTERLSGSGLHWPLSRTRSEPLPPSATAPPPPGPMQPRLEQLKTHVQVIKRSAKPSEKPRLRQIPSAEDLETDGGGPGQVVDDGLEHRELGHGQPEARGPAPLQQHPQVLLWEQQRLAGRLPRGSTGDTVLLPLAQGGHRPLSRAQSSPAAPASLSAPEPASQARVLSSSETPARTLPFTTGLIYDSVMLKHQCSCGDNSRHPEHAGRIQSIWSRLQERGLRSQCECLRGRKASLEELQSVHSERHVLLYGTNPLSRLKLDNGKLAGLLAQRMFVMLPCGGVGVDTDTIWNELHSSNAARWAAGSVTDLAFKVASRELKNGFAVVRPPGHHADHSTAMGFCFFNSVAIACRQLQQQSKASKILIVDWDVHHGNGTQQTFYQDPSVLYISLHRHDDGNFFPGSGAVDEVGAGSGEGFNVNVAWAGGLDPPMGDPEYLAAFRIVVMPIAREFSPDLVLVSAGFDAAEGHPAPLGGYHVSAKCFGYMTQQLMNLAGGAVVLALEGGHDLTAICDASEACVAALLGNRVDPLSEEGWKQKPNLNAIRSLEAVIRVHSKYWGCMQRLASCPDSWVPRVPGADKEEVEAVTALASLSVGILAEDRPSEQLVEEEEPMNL

[7] = target: T3, Histone deacetylase 1; assay: Inhibition of HDAC1 (unknown origin) preincubated for 90 mins
[8] = target: T2, Histone deacetylase 2; assay: Inhibition of HDAC2 (unknown origin) preincubated for 30 mins
[9] = target: T3, Histone deacetylase 1; assay: Inhibition of HDAC1 (unknown origin) preincubated for 5 mins
[10] = target: T2, Histone deacetylase 2; assay: Inhibition of HDAC2 (unknown origin) preincubated for 90 mins
[11] = target: Histone deacetylase 4 (Homo sapiens, UniProt P56524); assay: Inhibition of HDAC4 (unknown origin)
[12] = target: Histone deacetylase 9 (Homo sapiens, UniProt Q9UKV0); assay: Inhibition of HDAC9 (unknown origin)
[13] = target: T2, Histone deacetylase 2; assay: Inhibition of HDAC2 (unknown origin) at 1 uM preincubated for 1 hr followed by 100-fold dilution and subsequent substrate addition measured after 1 hr; settings: time 2.0 hrs
[14] = target: T1, Histone deacetylase 3; assay: Inhibition of HDAC3 (unknown origin) preincubated for 5 mins
[15] = target: T2, Histone deacetylase 2; assay: Mixed-type inhibition of HDAC2 (unknown origin) at 17.8 to 60 nM by Lineweaver-Burk plot analysis; settings: dose 17.8-60 nM
[16] = target: T1, Histone deacetylase 3; assay: Inhibition of HDAC3 (unknown origin) preincubated for 90 mins
[17] = target: T1, Histone deacetylase 3; assay: Mixed-type inhibition of HDAC3 (unknown origin) at 17.8 to 60 nM by Lineweaver-Burk plot analysis; settings: dose 17.8-60 nM
[18] = target: Histone deacetylase (Homo sapiens) (UniProt Q13547+O15379+Q9UBN7+Q92769+Q9UQL6+Q8WUI4+Q9BY41+Q96DB2+P56524+Q9UKV0+Q969S8); assay: Inhibition of HDAC in human MV4-11 cells assessed as histone H3 acetylation preincubated for 3 hrs followed by compound washout and measured after 6 hrs by Western blot analysis; format: cell-based
[19] = target: Histone deacetylase 5 (Homo sapiens, UniProt Q9UQL6); assay: Inhibition of HDAC5 (unknown origin)
[20] = target: T5, Polyamine deacetylase HDAC10 (Homo sapiens, UniProt Q969S8); assay: Inhibition of HDAC10 (unknown origin)
T5 sequence (Q969S8 whole entry): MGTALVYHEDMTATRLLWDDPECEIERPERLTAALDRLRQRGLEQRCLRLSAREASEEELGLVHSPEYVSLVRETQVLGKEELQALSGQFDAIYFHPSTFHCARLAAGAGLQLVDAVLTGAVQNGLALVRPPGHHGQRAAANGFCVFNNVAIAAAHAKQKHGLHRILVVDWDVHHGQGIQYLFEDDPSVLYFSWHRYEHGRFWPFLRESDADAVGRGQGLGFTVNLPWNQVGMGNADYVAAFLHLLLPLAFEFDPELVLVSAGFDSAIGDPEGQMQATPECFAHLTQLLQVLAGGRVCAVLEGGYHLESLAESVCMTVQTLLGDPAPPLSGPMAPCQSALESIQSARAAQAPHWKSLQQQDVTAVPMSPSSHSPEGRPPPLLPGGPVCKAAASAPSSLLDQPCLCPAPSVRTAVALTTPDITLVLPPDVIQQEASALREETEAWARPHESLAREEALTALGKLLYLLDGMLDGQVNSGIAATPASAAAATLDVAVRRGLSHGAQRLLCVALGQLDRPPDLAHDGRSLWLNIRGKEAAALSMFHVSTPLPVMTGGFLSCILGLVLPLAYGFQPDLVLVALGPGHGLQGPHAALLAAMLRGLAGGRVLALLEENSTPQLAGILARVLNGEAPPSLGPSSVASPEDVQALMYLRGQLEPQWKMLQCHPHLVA

[21] = test system: MV4-11; assay: Antiproliferative activity against human MV4-11 cells; format: functional, cell-based
[22] = target: T6, Histone deacetylase 11 (Homo sapiens, UniProt Q96DB2); assay: Inhibition of HDAC11 (unknown origin)
T6 sequence (Q96DB2 whole entry): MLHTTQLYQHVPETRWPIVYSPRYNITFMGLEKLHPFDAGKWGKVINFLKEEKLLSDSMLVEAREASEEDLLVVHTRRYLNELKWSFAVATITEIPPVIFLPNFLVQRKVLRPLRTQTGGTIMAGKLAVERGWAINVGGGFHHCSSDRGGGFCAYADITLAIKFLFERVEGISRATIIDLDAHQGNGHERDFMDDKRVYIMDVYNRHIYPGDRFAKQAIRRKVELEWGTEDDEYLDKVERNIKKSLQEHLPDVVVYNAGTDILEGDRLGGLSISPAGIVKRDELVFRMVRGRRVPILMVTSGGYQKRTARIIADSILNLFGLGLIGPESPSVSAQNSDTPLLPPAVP

[23] = target: T3, Histone deacetylase 1; assay: Inhibition of HDAC1 (unknown origin) preincubated for 120 mins
[24] = target: T1, Histone deacetylase 3; assay: Inhibition of HDAC3 (unknown origin)
[25] = target: T7, Histone deacetylase 8 (Homo sapiens, UniProt Q9BY41); assay: Inhibition of HDAC8 (unknown origin)
T7 sequence (Q9BY41 whole entry): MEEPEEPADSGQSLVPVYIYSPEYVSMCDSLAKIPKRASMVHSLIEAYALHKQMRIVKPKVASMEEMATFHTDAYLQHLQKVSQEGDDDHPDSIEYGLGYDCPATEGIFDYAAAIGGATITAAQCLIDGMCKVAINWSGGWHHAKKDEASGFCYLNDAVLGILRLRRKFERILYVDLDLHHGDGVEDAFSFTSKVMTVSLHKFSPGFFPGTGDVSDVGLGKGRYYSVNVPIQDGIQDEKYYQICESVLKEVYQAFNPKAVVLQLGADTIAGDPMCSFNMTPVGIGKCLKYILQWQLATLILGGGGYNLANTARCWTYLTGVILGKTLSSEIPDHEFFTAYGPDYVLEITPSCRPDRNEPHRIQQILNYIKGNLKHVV

[26] = target: T1, Histone deacetylase 3; assay: Inhibition of HDAC3 (unknown origin) preincubated for 30 mins
[27] = target: T8, Protein deacetylase HDAC6 (Homo sapiens, UniProt Q9UBN7); assay: Inhibition of HDAC6 (unknown origin)
T8 sequence (Q9UBN7 whole entry): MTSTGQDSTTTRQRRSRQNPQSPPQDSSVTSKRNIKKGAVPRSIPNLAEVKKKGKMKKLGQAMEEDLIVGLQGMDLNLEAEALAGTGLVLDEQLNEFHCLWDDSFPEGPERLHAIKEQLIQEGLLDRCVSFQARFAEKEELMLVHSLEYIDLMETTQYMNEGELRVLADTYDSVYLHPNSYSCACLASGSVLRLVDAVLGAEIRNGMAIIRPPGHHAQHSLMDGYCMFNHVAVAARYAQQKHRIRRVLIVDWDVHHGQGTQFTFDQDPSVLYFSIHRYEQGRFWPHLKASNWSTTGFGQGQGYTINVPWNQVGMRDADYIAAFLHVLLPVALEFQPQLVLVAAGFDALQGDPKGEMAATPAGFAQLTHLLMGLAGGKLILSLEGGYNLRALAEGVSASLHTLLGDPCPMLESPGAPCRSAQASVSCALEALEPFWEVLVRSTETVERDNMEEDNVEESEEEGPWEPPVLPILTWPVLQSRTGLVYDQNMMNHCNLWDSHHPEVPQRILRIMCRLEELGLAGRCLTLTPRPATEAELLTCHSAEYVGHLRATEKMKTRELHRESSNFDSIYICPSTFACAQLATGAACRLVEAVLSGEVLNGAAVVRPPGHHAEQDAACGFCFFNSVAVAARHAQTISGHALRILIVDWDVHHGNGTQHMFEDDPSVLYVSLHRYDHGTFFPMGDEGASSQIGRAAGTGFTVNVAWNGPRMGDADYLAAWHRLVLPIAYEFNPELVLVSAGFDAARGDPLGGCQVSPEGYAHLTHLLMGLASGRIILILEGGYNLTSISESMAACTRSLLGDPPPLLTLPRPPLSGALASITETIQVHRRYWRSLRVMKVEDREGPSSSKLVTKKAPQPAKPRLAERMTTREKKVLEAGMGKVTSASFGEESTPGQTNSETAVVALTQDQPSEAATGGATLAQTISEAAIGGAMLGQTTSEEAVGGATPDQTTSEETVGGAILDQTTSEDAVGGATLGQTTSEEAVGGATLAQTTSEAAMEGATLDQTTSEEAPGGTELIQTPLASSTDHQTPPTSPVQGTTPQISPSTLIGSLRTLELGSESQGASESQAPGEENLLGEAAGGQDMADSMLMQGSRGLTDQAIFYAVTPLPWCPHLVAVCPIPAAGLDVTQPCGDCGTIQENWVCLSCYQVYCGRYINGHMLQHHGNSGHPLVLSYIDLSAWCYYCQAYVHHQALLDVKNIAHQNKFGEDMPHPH

[28] = target: T3, Histone deacetylase 1; assay: Inhibition of HDAC1 (unknown origin)
[29] = target: T3, Histone deacetylase 1; assay: Inhibition of HDAC1 (unknown origin) at 1 uM preincubated for 1 hr followed by 100-fold dilution and subsequent substrate addition measured after 1 hr; settings: time 2.0 hrs
[30] = target: T3, Histone deacetylase 1; assay: Mixed-type inhibition of HDAC1 (unknown origin) at 17.8 to 60 nM by Lineweaver-Burk plot analysis; settings: dose 17.8-60 nM
[31] = target: T2, Histone deacetylase 2; assay: Inhibition of HDAC2 (unknown origin) preincubated for 5 mins
[32] = target: T2, Histone deacetylase 2; assay: Inhibition of HDAC2 (unknown origin)
[33] = target: T2, Histone deacetylase 2; assay: Inhibition of HDAC2 (unknown origin) preincubated for 60 mins
[34] = target: T3, Histone deacetylase 1; assay: Inhibition of HDAC1 (unknown origin) preincubated for 60 mins

T3 sequence (Q13547 whole entry): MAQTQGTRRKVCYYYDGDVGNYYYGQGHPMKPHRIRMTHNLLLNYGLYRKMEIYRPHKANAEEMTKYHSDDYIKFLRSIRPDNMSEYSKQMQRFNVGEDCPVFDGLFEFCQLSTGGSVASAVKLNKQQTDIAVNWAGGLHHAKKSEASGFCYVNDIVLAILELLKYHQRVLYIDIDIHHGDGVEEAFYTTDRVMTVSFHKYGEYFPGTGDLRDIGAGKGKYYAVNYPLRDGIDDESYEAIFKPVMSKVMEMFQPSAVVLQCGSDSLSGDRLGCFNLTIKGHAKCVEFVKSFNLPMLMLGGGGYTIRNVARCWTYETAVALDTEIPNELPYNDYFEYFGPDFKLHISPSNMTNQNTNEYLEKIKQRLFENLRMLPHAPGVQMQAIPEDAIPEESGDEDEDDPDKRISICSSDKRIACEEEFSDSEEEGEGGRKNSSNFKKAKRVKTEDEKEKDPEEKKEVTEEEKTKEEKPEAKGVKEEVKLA
T1 sequence (O15379 whole entry): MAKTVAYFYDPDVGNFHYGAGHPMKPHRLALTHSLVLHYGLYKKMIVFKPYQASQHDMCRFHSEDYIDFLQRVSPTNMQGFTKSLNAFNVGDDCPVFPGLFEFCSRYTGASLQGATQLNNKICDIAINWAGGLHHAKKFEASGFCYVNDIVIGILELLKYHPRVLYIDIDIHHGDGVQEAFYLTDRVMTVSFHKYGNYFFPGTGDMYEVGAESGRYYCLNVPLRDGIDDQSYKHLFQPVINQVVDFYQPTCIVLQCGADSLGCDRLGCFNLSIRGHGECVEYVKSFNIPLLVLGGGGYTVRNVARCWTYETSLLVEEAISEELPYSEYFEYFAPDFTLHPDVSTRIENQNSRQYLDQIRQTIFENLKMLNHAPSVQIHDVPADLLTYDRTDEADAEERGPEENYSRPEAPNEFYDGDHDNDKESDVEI
T2 sequence (Q92769 whole entry): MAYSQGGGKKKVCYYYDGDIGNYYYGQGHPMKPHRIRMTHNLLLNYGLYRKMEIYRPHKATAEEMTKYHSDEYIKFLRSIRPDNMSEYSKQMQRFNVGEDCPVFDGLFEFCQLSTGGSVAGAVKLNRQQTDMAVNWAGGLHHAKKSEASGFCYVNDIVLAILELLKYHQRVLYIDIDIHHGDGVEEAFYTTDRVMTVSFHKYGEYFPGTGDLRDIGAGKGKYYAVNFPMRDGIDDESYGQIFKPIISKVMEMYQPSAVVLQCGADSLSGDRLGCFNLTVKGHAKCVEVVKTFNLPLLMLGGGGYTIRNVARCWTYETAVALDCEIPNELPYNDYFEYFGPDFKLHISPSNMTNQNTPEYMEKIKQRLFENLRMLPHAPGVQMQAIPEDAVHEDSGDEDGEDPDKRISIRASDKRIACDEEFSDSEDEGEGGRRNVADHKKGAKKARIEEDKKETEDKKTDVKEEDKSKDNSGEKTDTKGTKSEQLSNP
Sequence of Histone deacetylase 4 (P56524 whole entry): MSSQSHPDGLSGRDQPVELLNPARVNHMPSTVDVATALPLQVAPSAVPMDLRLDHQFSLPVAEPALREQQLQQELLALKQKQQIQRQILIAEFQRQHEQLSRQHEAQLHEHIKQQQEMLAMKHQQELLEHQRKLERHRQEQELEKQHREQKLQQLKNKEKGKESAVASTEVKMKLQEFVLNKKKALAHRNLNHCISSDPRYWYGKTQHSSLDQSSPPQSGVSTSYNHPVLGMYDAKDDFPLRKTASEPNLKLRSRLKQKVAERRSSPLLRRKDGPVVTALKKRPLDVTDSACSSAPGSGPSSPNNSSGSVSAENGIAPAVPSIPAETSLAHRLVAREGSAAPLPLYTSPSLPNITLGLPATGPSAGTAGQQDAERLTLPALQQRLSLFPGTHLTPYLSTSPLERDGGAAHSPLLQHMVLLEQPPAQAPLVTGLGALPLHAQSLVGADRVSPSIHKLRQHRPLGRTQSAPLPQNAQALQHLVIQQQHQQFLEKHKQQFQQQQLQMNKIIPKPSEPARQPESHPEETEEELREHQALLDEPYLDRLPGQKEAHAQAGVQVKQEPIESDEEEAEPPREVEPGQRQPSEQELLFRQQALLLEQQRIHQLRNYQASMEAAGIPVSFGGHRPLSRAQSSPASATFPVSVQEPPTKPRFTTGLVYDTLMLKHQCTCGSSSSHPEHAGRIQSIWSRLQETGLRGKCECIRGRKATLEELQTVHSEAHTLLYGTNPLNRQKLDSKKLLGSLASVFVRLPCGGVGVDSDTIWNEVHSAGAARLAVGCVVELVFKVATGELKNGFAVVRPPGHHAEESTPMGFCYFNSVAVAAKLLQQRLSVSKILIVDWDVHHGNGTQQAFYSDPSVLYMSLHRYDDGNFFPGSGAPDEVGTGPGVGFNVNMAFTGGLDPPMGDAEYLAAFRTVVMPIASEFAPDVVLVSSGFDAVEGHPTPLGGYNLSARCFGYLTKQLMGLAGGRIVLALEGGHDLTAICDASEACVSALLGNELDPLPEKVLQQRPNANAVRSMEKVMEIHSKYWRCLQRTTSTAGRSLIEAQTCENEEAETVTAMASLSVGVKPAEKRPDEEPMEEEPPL
Sequence of Histone deacetylase 5 (Q9UQL6 whole entry): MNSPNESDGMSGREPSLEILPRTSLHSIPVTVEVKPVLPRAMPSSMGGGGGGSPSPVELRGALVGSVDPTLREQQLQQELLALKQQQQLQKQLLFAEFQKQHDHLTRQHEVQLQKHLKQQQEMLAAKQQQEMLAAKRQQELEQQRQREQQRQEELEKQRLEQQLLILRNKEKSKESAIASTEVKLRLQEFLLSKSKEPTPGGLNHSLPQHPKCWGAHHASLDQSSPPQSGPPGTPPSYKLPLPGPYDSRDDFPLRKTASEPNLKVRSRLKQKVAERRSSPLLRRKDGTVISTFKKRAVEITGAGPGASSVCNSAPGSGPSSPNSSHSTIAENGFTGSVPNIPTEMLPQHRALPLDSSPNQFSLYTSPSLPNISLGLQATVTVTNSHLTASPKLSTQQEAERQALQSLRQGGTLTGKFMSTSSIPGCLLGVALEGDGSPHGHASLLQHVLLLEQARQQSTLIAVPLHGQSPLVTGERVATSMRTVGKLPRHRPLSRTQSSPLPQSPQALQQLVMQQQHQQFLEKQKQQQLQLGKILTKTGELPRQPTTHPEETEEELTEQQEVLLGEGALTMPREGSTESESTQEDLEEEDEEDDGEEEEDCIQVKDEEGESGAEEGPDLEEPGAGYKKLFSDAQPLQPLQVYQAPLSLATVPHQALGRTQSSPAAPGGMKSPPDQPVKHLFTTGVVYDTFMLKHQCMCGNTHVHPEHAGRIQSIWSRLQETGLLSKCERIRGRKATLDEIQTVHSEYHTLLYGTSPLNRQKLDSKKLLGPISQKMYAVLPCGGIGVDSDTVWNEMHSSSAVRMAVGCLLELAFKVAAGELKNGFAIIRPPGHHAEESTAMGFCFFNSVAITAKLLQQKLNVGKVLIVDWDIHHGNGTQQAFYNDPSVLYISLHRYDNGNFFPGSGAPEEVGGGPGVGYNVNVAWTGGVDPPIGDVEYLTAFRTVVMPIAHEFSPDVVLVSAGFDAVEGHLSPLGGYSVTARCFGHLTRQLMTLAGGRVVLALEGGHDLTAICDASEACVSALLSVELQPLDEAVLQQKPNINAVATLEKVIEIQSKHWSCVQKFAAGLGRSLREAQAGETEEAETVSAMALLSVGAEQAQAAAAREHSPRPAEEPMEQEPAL
Sequence of Histone deacetylase 9 (Q9UKV0 whole entry): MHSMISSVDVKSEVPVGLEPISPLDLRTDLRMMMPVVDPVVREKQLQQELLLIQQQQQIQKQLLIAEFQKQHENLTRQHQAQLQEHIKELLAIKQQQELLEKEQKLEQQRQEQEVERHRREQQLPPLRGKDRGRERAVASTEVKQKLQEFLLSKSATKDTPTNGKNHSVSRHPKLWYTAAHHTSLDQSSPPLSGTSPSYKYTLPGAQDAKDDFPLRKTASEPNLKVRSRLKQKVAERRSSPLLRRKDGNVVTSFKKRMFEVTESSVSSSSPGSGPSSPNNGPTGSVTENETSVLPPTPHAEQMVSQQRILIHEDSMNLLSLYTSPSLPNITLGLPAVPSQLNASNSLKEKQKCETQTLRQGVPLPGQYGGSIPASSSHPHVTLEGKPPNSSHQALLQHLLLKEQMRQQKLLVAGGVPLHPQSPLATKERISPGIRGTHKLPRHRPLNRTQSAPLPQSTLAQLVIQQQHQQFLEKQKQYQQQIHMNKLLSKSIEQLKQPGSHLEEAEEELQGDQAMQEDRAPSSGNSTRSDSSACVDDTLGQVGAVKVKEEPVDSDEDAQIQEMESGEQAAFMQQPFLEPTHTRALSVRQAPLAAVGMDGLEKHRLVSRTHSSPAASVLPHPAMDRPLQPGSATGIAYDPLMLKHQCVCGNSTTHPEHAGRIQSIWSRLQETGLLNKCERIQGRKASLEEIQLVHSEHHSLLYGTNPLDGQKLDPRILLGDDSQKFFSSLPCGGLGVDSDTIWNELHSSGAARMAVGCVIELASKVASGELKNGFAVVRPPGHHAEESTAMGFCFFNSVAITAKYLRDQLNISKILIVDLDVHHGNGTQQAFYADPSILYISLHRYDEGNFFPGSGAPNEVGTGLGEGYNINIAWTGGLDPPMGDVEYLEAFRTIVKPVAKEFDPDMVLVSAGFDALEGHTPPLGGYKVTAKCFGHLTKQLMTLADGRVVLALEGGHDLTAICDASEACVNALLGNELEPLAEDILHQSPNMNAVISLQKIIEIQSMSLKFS

CCCNNC(=O)CCCCCCC(=O)Nc1ccccc1
IC50 [1]: 22.9 nM | IC50 [2]: 146 nM | IC50 [3]: 17.7 nM | IC50 [4]: 89.2 nM | inhibition [5]: Active | IC50 [6]: > 10 µM | IC50 [7]: 41.8 nM | IC50 [8]: 304 nM | IC50 [9]: 176 nM | IC50 [10]: 163 nM | IC50 [11]: > 10 µM | IC50 [12]: > 10 µM | inhibition [13]: Active | IC50 [14]: 58.2 nM | inhibition [15]: Active | IC50 [16]: 17.2 nM | inhibition [17]: Active | inhibition [18]: Active | IC50 [19]: > 10 µM | IC50 [20]: > 10 µM | IC50 [21]: 587 nM | IC50 [22]: > 10 µM | IC50 [23]: 48.4 nM | IC50 [24]: 20.3 nM | IC50 [25]: > 10 µM | IC50 [26]: 30.1 nM | IC50 [27]: > 10 µM | IC50 [28]: 45.2 nM | inhibition [29]: Active | inhibition [30]: Active | IC50 [31]: 406 nM | IC50 [32]: 125 nM | IC50 [33]: 214 nM | IC50 [34]: 62.9 nM
